# Legend:
# Assay type in all cases: physicochemical
# [1] = Solubility test of amorphous substance (room temperature); conditions: read-out: Roughly measured solubility
# Protocol: About 10 mg of amorphous substance was weighted and placed into an 8 mL glass bottle, and a solvent was gradually added at room temperature. 5 μL of solvent was added each time until all the solids were dissolved, and if 8 mL of solvent was added and the solids were not dissolved, the solvent addition was stopped. Table 1. Test results of solubility of amorphous substance of compound represented by Formula (1) (room temperature)
# [2] = Dynamic vapor sorption (DVS) hygroscopicity; conditions: for Hygroscopicity (DVS): 80% humidity, 25° C.; for Solid form by XRPD before and after DVS test: XRPD before vs after DVS
# Protocol: The sample was analyzed through Intrinsic DVS ([…]). The amount of test sample was about 20-30 mg. The temperature of a test room was controlled between 25±1° C., the relative humidity increased from 0% to 90% and then decreased to 0% at a rate of 10%/h, and mass data was recorded every 20 s.
# The DVS curve was acquired from DVS Intrinsic through an SMS (Surface Measurement Systems). The relative humidity at 25° C. was calibrated according to deliquescent points of LiCl, Mg(NO3)2 and KCl.
# [3] = Stability Test 1 (80° C., lighting, 25° C./60% RH, 40° C./75% RH; HPLC)
# Protocol: • Chromatographic conditions: • Chromatographic column: C18 column; • Running time: 60 min; • UV detector: 210 nm; • Flow rate: 1.0 mL/min; • Injection volume: 5 μL.
# A certain amount of crystals and amorphous raw materials were weighed and placed in liquid phase vials, and a total of 5 parts were prepared. The 5 parts were respectively placed under 80° C. (opened), 25° C./60% RH (opened), and 40° C./75% RH (opened) and in a stable lighting chamber (closed, 5000±500 Lx), and the stability under lighting for 10 days, 80° C. 1 day, and the chemical stability under 25° C. and 60% RH and under 40° C. and 75% RH for 1 week were determined by liquid phase, and the XRPD of the solid was determined.
# [4] = Solubility test of crystal form (room temperature); conditions: thermodynamic from solid
# Protocol: About 5 mg of the crystal form sample was weighed and placed in an 8 mL glass bottle, and solvent was gradually added at room temperature. 10 μL of solvent was added each time until all solids were dissolved, and if 5 mL of solvent was added and the solids were not dissolved, the solvent addition was stopped.
# [5] = Accelerated stability test of crystal form (Example 3, 40±2° C./75±5% RH)
# Protocol: The sample was taken at 0th, 1st and 3rd month for analysis, the stability of the samples was determined by liquid phase, and the crystal form was determined by XRPD.
# [6] = Accelerated stability test, packaged crystal form (Table 6); conditions: 40 ± 2° C./75 ± 5% RH
# Excerpt: (§1) Packaging requirements: it is needed to simulate commercially available packaging for the stability sample, the two inner layers are inner flat-bottom bags made of pharmaceutical polyethylene, the first layer of inner bag is tied and sealed, the second layer of inner bag is subjected to heat sealing, an aluminum foil bag at an outer layer is subjected to heat sealing, a package of desiccant is placed between the aluminum foil bag and the second layer of inner bag, and the package is placed in a fiber can.
# The sample was taken in the 0th, 1st, 2nd, 3rd and 6th months. The test items, test methods and technical requirements are detailed in Table 6, and the test results are compared with those in the 0th month.
# [7] = Long-term stability test, packaged crystal form (Table 7); conditions: 30±2° C./65±5% RH
# Excerpt: as §1
# The sample was taken in the 0th, 3rd and 6th months. The test items, test methods and technical requirements are detailed in Table 7, and the test results are compared with those in the 0th month.
# [8] = 25° C., 60% RH (opened), 1 week
# [9] = 40° C., 75% RH (opened), 1 week
# [10] = Lighting (closed, 5000±500 Lx), 10 Days
structure (smiles),measurement,setting,value
"CC(C)C(=O)O[C@@H](C)OC(=O)NC(C)(C)C(=O)N[C@H](COCc1ccccc1)C(=O)N1CCC2(CC1)CN(S(C)(=O)=O)c1ccccc12 [amorphous substance, (4R,11R)-7,7-dimethyl-4-(1-(methylsulfonyl)spiro[indoldoline-3,4′-piperidine]-1′-carbonyl)-6,9-dioxo-1-phenyl-2,10-dioxa-5,8-diazadodecane-11-ylisobutyrate]",solubility,"[1]; organic solvent or mixture, thermodynamic from solid, 1,4-Dioxane",> 760 mg/mL
same,solubility,"[1]; organic solvent or mixture, thermodynamic from solid, Acetone",> 520 mg/mL
same,solubility,"[1]; organic solvent or mixture, thermodynamic from solid, Acetonitrile",> 587 mg/mL
same,solubility,"[1]; organic solvent or mixture, thermodynamic from solid, Anisole",> 510 mg/mL
same,solubility,"[1]; organic solvent or mixture, thermodynamic from solid, Butanone",> 700 mg/mL
same,solubility,"[1]; organic solvent or mixture, thermodynamic from solid, Cyclohexane",< 1.2 mg/mL
same,solubility,"[1]; organic solvent or mixture, thermodynamic from solid, Dichloromethane",> 798 mg/mL
same,solubility,"[1]; organic solvent or mixture, thermodynamic from solid, Dimethyl sulfoxide",> 450 mg/mL
same,solubility,"[1]; organic solvent or mixture, thermodynamic from solid, Ethanol",> 480 mg/mL
same,solubility,"[1]; organic solvent or mixture, thermodynamic from solid, Ethyl acetate",> 600 mg/mL
same,solubility,"[1]; organic solvent or mixture, thermodynamic from solid, Ethyl formate",> 405 mg/mL
same,solubility,"[1]; organic solvent or mixture, thermodynamic from solid, Isopropanol",> 432 mg/mL
same,solubility,"[1]; organic solvent or mixture, thermodynamic from solid, Isopropyl acetate",> 643 mg/mL
same,solubility,"[1]; organic solvent or mixture, thermodynamic from solid, Methanol",> 725 mg/mL
same,solubility,"[1]; organic solvent or mixture, thermodynamic from solid, Methyl isobutyl ketone",> 400 mg/mL
same,solubility,"[1]; organic solvent or mixture, thermodynamic from solid, Methyl tert-butyl ether",> 70 mg/mL
same,solubility,"[1]; organic solvent or mixture, thermodynamic from solid, N-heptane",< 1.3 mg/mL
same,solubility,"[1]; organic solvent or mixture, thermodynamic from solid, N-hexane",< 1.2 mg/mL
same,solubility,"[1]; organic solvent or mixture, thermodynamic from solid, N-propanol",> 460 mg/mL
same,solubility,"[1]; organic solvent or mixture, thermodynamic from solid, Tetrahydrofuran",> 553 mg/mL
same,solubility,"[1]; organic solvent or mixture, thermodynamic from solid, Toluene",> 473 mg/mL
same,solubility,"[1]; thermodynamic from solid, Water",< 1.3 mg/mL
same,Hygroscopicity (DVS),[2],slightly hygroscopic
same,Solid form by XRPD before and after DVS test,[2],the morphology of the solid did not change
same,Degradation (%),[3]; [8],0.01%
same,Purity (%),[3]; [8],99.27%
same,Degradation (%),[3]; [9],0.03%
same,Purity (%),[3]; [9],99.25%
same,Degradation (%),"[3]; 80° C. (opened), 1 Day",0.18%
same,Purity (%),"[3]; 80° C. (opened), 1 Day",99.10%
same,Purity (%),[3]; Initial,99.28%
same,Degradation (%),[3]; [10],1.02%
same,Purity (%),[3]; [10],98.26%
"CC(C)C(=O)O[C@@H](C)OC(=O)NC(C)(C)C(=O)N[C@H](COCc1ccccc1)C(=O)N1CCC2(CC1)CN(S(C)(=O)=O)c1ccccc12 [crystal form, (4R,11R)-7,7-dimethyl-4-(1-(methylsulfonyl)spiro[indoldoline-3,4′-piperidine]-1′-carbonyl)-6,9-dioxo-1-phenyl-2,10-dioxa-5,8-diazadodecane-11-ylisobutyrate]",solubility,"[4]; organic solvent or mixture, Acetone",~117 mg/mL
same,solubility,"[4]; organic solvent or mixture, Acetonitrile",~128 mg/mL
same,solubility,"[4]; organic solvent or mixture, Dichloromethane",~251 mg/mL
same,solubility,"[4]; organic solvent or mixture, Ethanol",~20.9 mg/mL
same,solubility,"[4]; organic solvent or mixture, Ethyl acetate",~133 mg/mL
same,solubility,"[4]; organic solvent or mixture, Methyl tert-butyl ether",~0.7 mg/mL
same,solubility,"[4]; organic solvent or mixture, N-heptane",< 0.6 mg/mL
same,solubility,"[4]; organic solvent or mixture, Tetrahydrofuran",~232 mg/mL
same,solubility,"[4]; organic solvent or mixture, Toluene",~13.2 mg/mL
same,solubility,[4]; Water,< 0.7 mg/mL
same,Moisture adsorption (DVS),[2]; 25° C./80% RH,0.10%
same,Hygroscopicity (DVS),[2],almost had no hygroscopicity
same,Solid form by XRPD before and after DVS test,[2],the crystal form did not vary
same,Degradation (%),[3]; [8],0.02%
same,Purity (%),[3]; [8],99.69%
same,Degradation (%),[3]; [9],0.1%
same,Purity (%),[3]; [9],99.61%
same,Degradation (%),"[3]; 80° C. (opened), 1 Day",0.12%
same,Purity (%),"[3]; 80° C. (opened), 1 Day",99.59%
same,Purity (%),[3]; Initial,99.71%
same,Degradation (%),[3]; [10],0.35%
same,Purity (%),[3]; [10],99.36%
same,Total impurities (%),[5]; 1 month,0.07%
same,Total impurities (%),[5]; 3 months,0.05%
same,Total impurities (%),[5]; Initial,0.07%
same,Conclusion,[6]; 0th month,Qualified
same,Content (anhydrous and insoluble residue)/HPLC,[6]; 0th month,99.4%
same,Isomer/HPLC: Chiral purity,[6]; 0th month,100.0%
same,Isomer/HPLC: Isomer 1,[6]; 0th month,0.05%
same,Moisture,[6]; 0th month,0.2%
same,Related substances/HPLC: Impurity 3,[6]; 0th month,<0.05%
same,Related substances/HPLC: Other impurities,[6]; 0th month,0.05%
same,Related substances/HPLC: Total impurities,[6]; 0th month,0.05%
same,Conclusion,[6]; 1st month,Qualified
same,Content (anhydrous and insoluble residue)/HPLC,[6]; 1st month,99.0%
same,Isomer/HPLC: Chiral purity,[6]; 1st month,100.0%
same,Isomer/HPLC: Isomer 1,[6]; 1st month,0.04%
same,Moisture,[6]; 1st month,0.1%
same,Related substances/HPLC: Impurity 3,[6]; 1st month,<0.05%
same,Related substances/HPLC: Other impurities,[6]; 1st month,0.05%
same,Related substances/HPLC: Total impurities,[6]; 1st month,0.05%
same,Conclusion,[6]; 2nd month,Qualified
same,Content (anhydrous and insoluble residue)/HPLC,[6]; 2nd month,98.9%
same,Isomer/HPLC: Chiral purity,[6]; 2nd month,100.0%
same,Isomer/HPLC: Isomer 1,[6]; 2nd month,0.04%
same,Moisture,[6]; 2nd month,0.2%
same,Related substances/HPLC: Impurity 3,[6]; 2nd month,<0.05%
same,Related substances/HPLC: Other impurities,[6]; 2nd month,0.05%
same,Related substances/HPLC: Total impurities,[6]; 2nd month,0.05%
same,Conclusion,[6]; 3rd month,Qualified
same,Content (anhydrous and insoluble residue)/HPLC,[6]; 3rd month,98.9%
same,Isomer/HPLC: Chiral purity,[6]; 3rd month,100.0%
same,Isomer/HPLC: Isomer 1,[6]; 3rd month,0.04%
same,Moisture,[6]; 3rd month,0.1%
same,Related substances/HPLC: Impurity 3,[6]; 3rd month,<0.05%
same,Related substances/HPLC: Other impurities,[6]; 3rd month,<0.05%
same,Related substances/HPLC: Total impurities,[6]; 3rd month,<0.05%
same,Stability under the accelerated condition,[6]; 6 months vs 0th month,stable
same,Conclusion,[6]; 6th month,Qualified
same,Content (anhydrous and insoluble residue)/HPLC,[6]; 6th month,99.5%
same,Isomer/HPLC: Chiral purity,[6]; 6th month,100.0%
same,Isomer/HPLC: Isomer 1,[6]; 6th month,0.04%
same,Moisture,[6]; 6th month,0.1%
same,Related substances/HPLC: Impurity 3,[6]; 6th month,<0.05%
same,Related substances/HPLC: Other impurities,[6]; 6th month,<0.05%
same,Related substances/HPLC: Total impurities,[6]; 6th month,<0.05%
same,New impurity peak,[6]; 6th month vs 0th month,≤ 0.10%
same,Characters,[7]; 0th month,White powder
same,Conclusion,[7]; 0th month,Qualified
same,Content (anhydrous and insoluble residue)/HPLC,[7]; 0th month,99.4%
same,Isomer/HPLC: Chiral purity,[7]; 0th month,100.0%
same,Isomer/HPLC: Isomer 1,[7]; 0th month,0.05%
same,Moisture,[7]; 0th month,0.2%
same,Related substance/HPLC: Impurity 3,[7]; 0th month,<0.05%
same,Related substance/HPLC: Other impurities,[7]; 0th month,0.05%
same,Related substance/HPLC: Total impurities,[7]; 0th month,0.05%
same,Characters,[7]; 3rd month,White powder
same,Conclusion,[7]; 3rd month,Qualified
same,Content (anhydrous and insoluble residue)/HPLC,[7]; 3rd month,99.9%
same,Isomer/HPLC: Chiral purity,[7]; 3rd month,99.9%
same,Isomer/HPLC: Isomer 1,[7]; 3rd month,0.06%
same,Moisture,[7]; 3rd month,0.1%
same,Related substance/HPLC: Impurity 3,[7]; 3rd month,<0.05%
same,Related substance/HPLC: Other impurities,[7]; 3rd month,0.05%
same,Related substance/HPLC: Total impurities,[7]; 3rd month,0.05%
same,Stability under the long-term condition,[7]; 6 months vs 0th month,stable
same,Characters,[7]; 6th month,White powder
same,Conclusion,[7]; 6th month,Qualified
same,Content (anhydrous and insoluble residue)/HPLC,[7]; 6th month,99.6%
same,Isomer/HPLC: Chiral purity,[7]; 6th month,100.0%
same,Isomer/HPLC: Isomer 1,[7]; 6th month,0.03%
same,Moisture,[7]; 6th month,0.1%
same,Related substance/HPLC: Impurity 3,[7]; 6th month,<0.05%
same,Related substance/HPLC: Other impurities,[7]; 6th month,<0.05%
same,Related substance/HPLC: Total impurities,[7]; 6th month,<0.05%
same,New impurity peak,[7]; 6th month vs 0th month,≤ 0.10%
